For one test, the target named is T1, Human M4 (Homo sapiens, UniProt P08173).
T1 construct: expressed in transfected cells; host or cells: CHO-K1 (ATCC), stably co-transfected with Gqi5
T1 sequence (P08173 1-479): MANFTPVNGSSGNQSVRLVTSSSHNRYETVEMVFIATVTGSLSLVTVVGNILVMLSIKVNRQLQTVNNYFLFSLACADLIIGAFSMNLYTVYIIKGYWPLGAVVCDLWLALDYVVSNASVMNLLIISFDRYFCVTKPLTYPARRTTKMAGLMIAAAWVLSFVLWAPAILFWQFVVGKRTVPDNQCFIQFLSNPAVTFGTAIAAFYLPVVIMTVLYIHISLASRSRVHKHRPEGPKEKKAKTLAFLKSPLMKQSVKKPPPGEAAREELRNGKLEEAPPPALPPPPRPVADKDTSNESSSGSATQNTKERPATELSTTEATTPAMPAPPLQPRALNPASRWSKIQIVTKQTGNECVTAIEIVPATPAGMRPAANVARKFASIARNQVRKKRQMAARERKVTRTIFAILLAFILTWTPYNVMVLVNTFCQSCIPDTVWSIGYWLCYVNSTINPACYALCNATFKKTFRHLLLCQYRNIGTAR
In words: mAChR M4 cell-based functional assay (calcium flux, antagonism of EC80 acetylcholine response, M4/Gqi5/CHO-K1 cells). Particulars: % ACh maximum at 30 μM. The method, then: Human or rat M4 cDNA, along with the chimeric G protein Gqi5, were transfected into Chinese hamster ovary (CHO-K1) cells purchased from the American Type Culture Collection using Lipofectamine2000. M4/Gqi5/CHO cells were grown in Ham's F-12 medium containing 10% heat-inactivated fetal bovine serum (FBS), 20 mM HEPES, 500 μg/mL G418 sulfate, and 200 μg/mL Hygromycin B.
For high throughput measurement of agonist-evoked increases in intracellular calcium, CHO-K1 cells stably expressing muscarinic receptors were plated in growth medium lacking G^418 and hygromycin at 15,000 cells/20 μL/well in Greiner 384-well black-walled, tissue culture (TC)-treated, clear-bottom plates (VWR). Cells were incubated overnight at 37° C. and 5% CO2. The next day, cells were washed using an ELX 405 (BioTek) with assay buffer; the final volume was then aspirated to 20 μL. Next, 20 μL of a […] of Fluo-4/acetoxymethyl ester (Invitrogen, Carlsbad, CA), prepared as a 2.3 mM stock in DMSO and mixed in a 1:1 ratio with 10% (w/v) Pluronic F-127 and diluted in assay buffer, was added to the wells and the cell plates were incubated for 50 min at 37° C. and 5% CO2. Dye was removed by washing with the ELX 405 and the final volume was aspirated to 20 μL. Compound master plates were formatted in a 10-point concentration-response curve (CRC) format (1:3 dilutions) in 100% DMSO with a starting concentration of 10 or 1 mM using a BRAVO liquid handler (Agilent). Test compound CRCs were then transferred to daughter plates (240 nL) using the Echo acoustic plate reformatter (Labcyte, Sunnyvale, CA) and then diluted into assay buffer (40 μL) to a 2× stock using a Thermo Fisher Combi (Thermo Fisher Scientific, Waltham, MA).
Calcium flux was measured using the Functional Drug Screening System (FDSS) 6000 or 7000 (Hamamatsu Corporation, Tokyo, Japan) as an increase in the fluorescent static ratio. Compounds were applied to cells (20 μL, 2×) using the automated system of the FDSS at 2 seconds into the protocol and the data were collected at 1 Hz. At 143 s, 10 μL of an EC20 concentration of the muscarinic receptor agonist acetylcholine was added (5×), followed by the addition of 12 μL of an EC80 concentration of acetylcholine at the 268 s time point (5×). Agonist activity was analyzed as a concentration-dependent increase in calcium mobilization upon compound addition. Positive allosteric modulator activity was analyzed as a concentration-dependent increase in the EC20 acetylcholine response. Antagonist activity was analyzed as a concentration-dependent decrease in the EC80 acetylcholine response; for the purposes of the tables herein, an IC50 (inhibitory concentration 50) was calculated as a concentration-dependent decrease of the response elicited by an EC80 concentration of acetylcholine. Concentration-response curves were generated using a four-parameter logistical equation in XLFit curve fitting software (IDBS, Bridgewater, NJ) for Excel (Microsoft, Redmond, WA) or Prism (GraphPad Software, Inc., San Diego, CA) or the Dotmatics software platform (Dotmatics, Bishop's Stortford, UK).
Compounds were synthesized as described above. Activity (IC50 and Emin) was determined in the mAChR M4 cell-based functional assay as described above and the data are shown in Table 2.
(In general: Calcium assays in cells follow changes in intracellular calcium, usually with a dye or a luminescent sensor.)

Test [1] concerns catalepsy induced by the DA receptor antagonist haloperidol. The settings on record: cited from earlier work.
In another test the target is T2, Human M1 (Homo sapiens, UniProt P11229).
T2 sequence (P11229 1-460): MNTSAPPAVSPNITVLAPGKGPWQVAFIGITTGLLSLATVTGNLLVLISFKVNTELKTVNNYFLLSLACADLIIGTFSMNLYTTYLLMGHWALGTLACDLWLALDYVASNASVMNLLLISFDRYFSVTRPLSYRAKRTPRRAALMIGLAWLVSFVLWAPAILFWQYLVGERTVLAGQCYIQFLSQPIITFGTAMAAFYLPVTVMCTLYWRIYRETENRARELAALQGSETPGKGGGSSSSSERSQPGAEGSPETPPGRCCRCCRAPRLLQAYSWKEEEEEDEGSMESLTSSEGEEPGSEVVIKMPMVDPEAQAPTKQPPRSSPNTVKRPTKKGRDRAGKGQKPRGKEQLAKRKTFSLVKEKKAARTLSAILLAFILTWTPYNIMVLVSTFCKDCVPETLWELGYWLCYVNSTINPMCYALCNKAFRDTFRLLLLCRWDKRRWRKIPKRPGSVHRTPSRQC
In words: mAChR M1 cell-based functional assay (calcium flux, antagonism of EC80 acetylcholine response, hM1 CHO-K1 cells). Particulars: compound 61 versus compound 62, data of Table 3. The method, then: hM1 cDNA was purchased from Missouri S&T cDNA Resource and used to stably transfect CHO-K1 cells purchased from the American Type Culture Collection using Lipofectamine2000. hM1 cells were grown in Ham's F-12 medium containing 10% heat-inactivated fetal bovine serum (FBS), 20 mM HEPES, and 50 μg/mL G418 sulfate.
For high throughput measurement of agonist-evoked increases in intracellular calcium, CHO-K1 cells stably expressing muscarinic receptors were plated in growth medium lacking G418 and hygromycin at 15,000 cells/20 μL/well in Greiner 384-well black-walled, tissue culture (TC)-treated, clear-bottom plates (VWR). Cells were incubated overnight at 37° C. and 5% CO2. […]
Calcium flux was measured using the Functional Drug Screening System (FDSS) 6000 (Hamamatsu Corporation, Tokyo, Japan) as an increase in the fluorescent static ratio. […] Agonist activity was analyzed as a concentration-dependent increase in calcium mobilization upon compound addition. […] Positive allosteric modulator activity was analyzed as a concentration-dependent increase in the EC20 acetylcholine response. Antagonist activity was analyzed as a concentration-dependent decrease in the EC80 acetylcholine response; for the purposes of the tables herein, an IC50 (inhibitory concentration 50) was calculated as a concentration-dependent decrease of the response elicited by an EC80 concentration of acetylcholine. […]

Turning to `[2H]C([2H])(C1CCOC(C)(C)C1)N1C[C@H]2C[C@H](Nc3ccc(-c4cnccc4C(F)(F)F)nn3)C[C@H]2C1` (single isomer, unassigned) [Compound 58], the “Human M4 Emin” value at Human M4 was determined as 3%. Turning to `CN1[C@@H]2C[C@@H](OC(=O)[C@H](CO)c3ccccc3)C[C@H]1[C@@H]1O[C@@H]12` [scopolamine], the “reduction of haloperidol-induced catalepsy” value in test [1] (M4KO mice) is given as “ineffective in reducing catalepsy”. In addition, the “reversal of haloperidol-induced catalepsy” value in test [1] (WT mice) was “completely reversed”. `[2H]C([2H])([C@H]1CCOC(C)(C)C1)N1C[C@H]2C[C@H](Nc3ccc(-c4cccnc4C(F)(F)F)nn3)C[C@H]2C1` [Compound 61, (3aR,5s,6aS)-2-(((S)-2,2-dimethyltetrahydro-2H-pyran-4-yl)methyl-d2)-N-(6-(2-(trifluoromethyl)pyridin-3-yl)pyridazin-3-yl)octahydrocyclopenta[c]pyrrol-5-amine]: the remaining activity at 30 µM at Human M4 (CHO-K1, read-out: Human M4 Emin) was 8%. Also, the “human mAChR M1 antagonist activity (comparison in words)” value at Human M1 was “less human mAChR M1 antagonist activity than compound 62”. As to `[2H]C1([2H])CC(C([2H])([2H])N2C[C@H]3C[C@H](Nc4nnc(-c5cnccc5C(F)(F)F)cc4OC)C[C@H]3C2)CC([2H])([2H])O1` [Compound 22, (3aR,5s,6aS)-N-(4-methoxy-6-(4-(trifluoromethyl)pyridin-3-yl)pyridazin-3-yl)-2-((tetrahydro-2H-pyran-4-yl-2,2,6,6-d4)methyl-d2)octahydrocyclopenta[c]pyrrol-5-amine], the “Human M4 Emin” value at Human M4 was found to be 2%. As for `[2H]C([2H])([C@H]1CCCCO1)N1C[C@H]2C[C@H](Nc3ccc(-c4cccnc4C(F)(F)F)nn3)C[C@H]2C1` [Compound 49, (3aR,5s,6aS)-2-(((R)-tetrahydro-2H-pyran-2-yl)methyl-d2)-N-(6-(2-(trifluoromethyl)pyridin-3-yl)pyridazin-3-yl)octahydrocyclopenta[c]pyrrol-5-amine], the “Human M4 Emin” value on Human M4 amounted to 2%. For the molecule `[2H]C([2H])([C@@H]1CCCOC1)N1C[C@H]2C[C@H](Nc3ccc(-c4cccnc4C(F)(F)F)nn3)C[C@H]2C1` [Compound 47, (3aR,5s,6aS)-2-(((S)-tetrahydro-2H-pyran-3-yl)methyl-d2)-N-(6-(2-(trifluoromethyl)pyridin-3-yl)pyridazin-3-yl)octahydrocyclopenta[c]pyrrol-5-amine], the “Human M4 Emin” value at Human M4 is 2%.

On to `[2H]C1([2H])CC(C([2H])([2H])N2C[C@H]3C[C@H](Nc4nnc(-c5cnccc5C(F)(F)F)cc4C)C[C@H]3C2)CC([2H])([2H])O1` [Compound 18, (3aR,5s,6aS)-N-(4-methyl-6-(4-(trifluoromethyl)pyridin-3-yl)pyridazin-3-yl)-2-((tetrahydro-2H-pyran-4-yl-2,2,6,6-d4)methyl-d2)octahydrocyclopenta[c]pyrrol-5-amine], for which the “Human M4 Emin” value on Human M4 is on record as 4%.

The values are drawn from US20250145595A1, “ANTAGONISTS OF THE MUSCARINIC ACETYLCHOLINE RECEPTOR M4” (Vanderbilt University, priority 2021, published 2025).
